System: Plasmodium falciparum
Test: GSK_TCMDC: Inhibition of Plasmodium falciparum 3D7 in whole erythrocytes, using parasite LDH activity as an index of growth.
Assay type: functional, organism-based
Settings: Plasmodium falciparum, 3D7

Structure (SMILES)	XC50 [µM]
O=[N+]([O-])c1cccc(/C=N/Nc2ccnc3cc(F)ccc23)c1	0.91
CC(C)(C)N1CCC(N(Cc2ccc(-c3ccc(C(F)(F)F)cc3)cc2)C(=O)Cn2c(CCc3cccc(F)c3F)cc(=O)c3cccnc32)CC1	0.705
O=C(c1cnn(-c2ccccc2)c1C(F)(F)F)N1CCN(c2ccnc3cc(Cl)ccc23)CC1	0.532
Cc1ccc(NCc2cccc(F)c2)cc1S(=O)(=O)N[C@@H]1CCN(C#N)C1	0.785
O=C(CSc1nc(-c2ccccc2Cl)ns1)Nc1cccc(Cl)c1	0.787
Cc1cc(NC(=O)Nc2ccc(N(C)C)cc2)c2cc(Cl)ccc2n1	0.857
CCn1c(-c2nonc2N)nc2cnc(Oc3cccc(NC(=O)c4ccc(OCCN5CCCCC5)cc4)c3)cc21	1.06
CS(=O)(=O)CCNCc1nc(-c2ccc3ncnc(Nc4ccc(OCc5cccc(F)c5)c(Cl)c4)c3c2)cs1	0.771
CCC[C@@H]([C@@H](CC1CCC(C)CC1)C(=O)N[C@@H](CCCCNC(=O)c1ccccn1)C(=O)Nc1nccs1)N(O)C=O (stereo partly drawn)	0.0513
CC1(C)NC(N)=NC(=N)N1OCCCOc1ccccc1N	0.0032
O=C1OC(c2cc3ccccc3n2S(=O)(=O)c2ccccc2)(c2cc3ccccc3n2S(=O)(=O)c2ccccc2)c2ccccc21	0.846
COCCNCc1ncsc1-c1ccc2c(Nc3cc(O)c(Cl)cc3F)ccnc2c1	0.547
CC[C@H]1CN2CC[C@@H]1C[C@H]2[C@H](O)c1cc(-c2cccnc2)nc2ccc(OC)cc12	0.0379
COc1ccc2nccc(N3CCCN(CCNCc4ccc5c(n4)NC(=O)CS5)CC3)c2n1	0.155
CN1CCCC1CCNCc1cccc(-c2cnc(N(C)C3CCCCC3)nc2)c1 (stereo not drawn)	0.853
CCNc1cc(C)nc(Nc2ccc(NC(=O)c3ccccc3Br)cc2)n1	0.742
CCCOc1cc(OCCC)cc(-c2ccc(C(=O)Nc3ccc4ccc(C)nc4c3)c(=O)[nH]2)c1	0.75
O=C1OC(c2ccccc2)(c2ccccc2)CN1C1CCN(Cc2ccc(O)c(Cl)c2)C1 (stereo not drawn)	0.955
COc1ccc(NC(=O)/C=C/c2ccccc2Cl)cc1OCCN1CCC(N2CCCC2)CC1	0.786
CC(CN(C)C)C(=O)Nc1cccc(-c2cccc(-c3nc4ccccc4[nH]3)c2)c1 (stereo not drawn)	1.06
CCc1ccc(OCCCON2C(=N)N=C(N)NC2(C)C)cc1	0.0032
CCCCCCCc1c2c(C)c(C(=O)OCC)nc-2cc2n1CC(C)=C2C	1.14
CCCCOc1ccc(N2C(N)=NC(N)=NC2(C)C)cc1	0.215
CCC(CC)CN1C(=O)C(C)(c2ccccc2)N=C1N (stereo not drawn)	1.06
CCCCC#Cc1cnc2nc(N)[nH]c(=O)c2n1	0.646

Structure (SMILES)	XC50 [µM]
CCC(=O)Nc1ccc(C(O)CN2CCC3(C=Cc4ccccc4O3)CC2)cc1 (stereo not drawn)	1.2
Cn1nc(-c2ccc(Cl)cc2)c2cc(C(=O)NCCN3CCOCC3)sc21	0.721
CCn1c(-c2nonc2N)nc2c(-c3ccccc3)ncc(OCCCCNCCc3ncc[nH]3)c21	0.852
CC(C)COc1ccc(Cl)cc1Cc1ccc(-c2nc3ccc(Cl)cc3[nH]2)o1	0.925
O=C(c1cncc(-c2ccccc2)c1)N(Cc1cncn1Cc1ccccc1F)CC1CC1	0.804
CN(c1ccccc1C(=O)Nc1cc(Cl)ccc1Oc1ccccc1)S(=O)(=O)c1ccccc1	0.742
O=C(Nc1cccc(CN2CCCN(CC3CC3)CC2)c1)c1ccc(Cl)c(Cl)c1	1.03
Nc1cnc(C#Cc2cc3ncnc(N(CCN4CCOCC4)c4ccc(OCc5cccc(F)c5)c(Cl)c4)c3s2)cn1	1.05
O=C(CCCCCNC(=O)c1ccc(O)c(-c2ccc(Cl)c(Cl)c2)c1)NCc1cccc2ccccc12	0.762
Cc1cc(N[C@@H](Cc2ccccc2)C(=O)NC2CCCC2)nc(NCCOc2ccccc2)n1	1.11
CC(Oc1ccc(NC(=O)c2cccs2)cc1)C(=O)c1ccc(Cl)cc1 (stereo not drawn)	0.774
O=C(NCCN1CCCC1)c1cccc(-c2ccc(-c3nc4cc(F)ccc4[nH]3)s2)c1	1.53
Cc1[nH]c2ccc([N+](=O)[O-])cc2c1C1=CCN(C)CC1	0.335
Cc1cccc(C)c1OC(=O)C(C)C(O)C1(Sc2ccccc2)CCN(C)CC1 (stereo not drawn)	0.734
O=C1COC(c2ccccc2)(c2ccccc2)CN1CC1CCN(Cc2ccc(O)cc2Cl)C1 (stereo not drawn)	0.999
Cc1cc2cc(NC(=O)Nc3ccnc4ccccc34)ccc2n1C	1.09
O=C(Nc1ccc(Cl)cc1)Nc1ccc2nonc2c1	1.1
CC(C)Nc1cc(C(=O)N[C@@H](Cc2ccccc2)[C@H](O)CNC2CCOCC2)c(F)c(N2CCCCS2(=O)=O)c1	0.183
Cn1c(NCc2cc(F)cc3c2OCOC3)nc2cc(Nc3ccnc(Nc4cccc(CS(C)(=O)=O)c4)n3)ccc21	0.149
O=C(c1cc2ccccc2o1)N1CCc2cc3nccc(N4CCN5CCC[C@H]5C4)c3cc21	0.812
Fc1ccc(C(OCC2CCCN(Cc3cccc4cccnc34)C2)c2ccc(F)cc2)cc1 (stereo not drawn)	0.703
FC(F)(F)c1ccc2[nH]c(-c3ccc(-c4ccc(CN5CCN(c6cnccn6)CC5)cc4)s3)nc2c1	0.652
CC(=O)Oc1c(C2CCN(CCCCNC(=O)c3ccc(NC(=O)c4ccc(Cl)cc4)cc3)CC2)ccc2ccccc12	0.881
CCCCCCCCCCNCC(O)c1ccc(O)c(C(=O)OC)c1 (stereo not drawn)	0.717
Cc1nc2ccc(-c3ccc(OC(F)(F)F)cc3)cc2c(O)c1C#N	0.0207

Structure (SMILES)	XC50 [µM]
CCNCCCC(C)Nc1ccnc2cc(Cl)ccc12 (stereo not drawn)	0.2
COc1ccc(CCN(C)CCCOc2ccc(NC(=O)COc3cccc4sc5ccccc5c(=O)c34)cc2)cc1OC	0.459
CN(C)CCOc1cc(NC(=O)/C=C/c2cccc3ccccc23)ccc1I	1.26
CCOc1c(Br)cc(Br)cc1CNCCCCNc1nc2ccccc2[nH]1	0.394
CCCCN1CCN(c2cc(NS(=O)(=O)c3cccc(C(=O)Nc4ccc(C(F)(F)F)cc4)c3)ccc2OC)CC1	0.685
O=S(=O)(c1cccc(Br)c1)N1CCCCC(c2ccc(C(F)(F)F)cc2)=N1	0.553
CCCCOc1c(CCNCCCCNCCc2cc(OC)c3ccccc3c2OCCCC)cc(OC)c2ccccc12	0.925
COc1cccc(CN2CCCC(OC(c3ccc(F)cc3)c3ccc(F)cc3)C2)c1O (stereo not drawn)	0.788
CN1CCN(c2ccc(-c3cccc(NC(=O)c4cccc(Cl)c4)c3)nn2)CC1	0.579
Cc1nc(N/C(N)=N/C(=O)NC2CCCCC2)nc2ccccc12	0.791
CN1CCC(Oc2ccc(NC(=O)c3ccc4c(=O)n(Cc5ccccc5)cnc4c3)cc2Cl)CC1	0.954
O=C(c1ccc(O)c(-c2cc(Cl)cc(Cl)c2)c1)N(CCO)CCO	0.908
O=c1nc(NCCCNCc2cc3c(Cl)cc(Cl)cc3[nH]2)[nH]c2ccccc12	0.993
Cc1ccc2nc(-c3ccc(C(=O)NCc4ccc(Cl)c(Cl)c4)cc3)[nH]c2c1C	0.79
CN1CCN(Cc2nc(-c3ccc4c(Nc5ccc(Oc6ccccc6)cc5)ccnc4c3)cs2)CC1	0.31
Cc1cc(N2CCN(C(=O)OC(C)(C)C)CC2)ccc1N	0.865
CC(C)OC(=O)c1ccc(NC(=O)N[C@@H](Cc2ccc(O)cc2)C(=O)NC2CC3CCC(C2)N3Cc2ccccc2)cc1 (stereo partly drawn)	1.08
NC(=O)c1cc(-c2ccccc2)cc2c(C3CCC(NCc4ccccc4)C3)c[nH]c12 (stereo not drawn)	0.91
O=C(Nc1ccc2c(c1)CNCC2)c1ccc(-c2ccc(Cl)cc2)cc1	0.662
O=S(=O)(Nc1ccc(CCN2CCCCC2CCN2CCCC2)cc1)c1ccc(-c2ccccc2)cc1 (stereo not drawn)	0.926
COc1ccc(CCON2C(=N)N=C(N)NC2(C)C)cc1OC	0.00591
OC1(C(F)(F)F)CC(c2ccccc2)=NN1c1nncc(-c2ccccc2)n1 (stereo not drawn)	0.735
Clc1ccc(Cc2nc3ccccc3[nH]2)cc1Cl	0.246
O=C(Nc1ccc(Cn2ncc(N3CCCNCC3)c(Cl)c2=O)cc1)Nc1cc(C(F)(F)F)cc(C(F)(F)F)c1	0.588
CN(Cc1ccccc1)C1CCCN(c2cc(NC(=O)c3cccs3)ccn2)C1 (stereo not drawn)	1.13

Structure (SMILES)	XC50 [µM]
CCCCN(C)CC#Cc1ccc2[nH]c(C)c(Cl)c(=O)c2c1	0.13
Fc1cccc(CNc2ncc(-c3ccsc3)c(-c3nccs3)n2)c1	0.238
CCCCCC(NCCCC)c1ccc(OCCOc2ccc(C(CCCCC)NCCCC)cc2)cc1 (stereo not drawn)	1.24
CCCC[C@H](NC(=O)O[C@H](COc1ccc(OCc2ccccc2)cc1)C(C)(C)C)C(=O)C(=O)Nc1cc[nH]n1	0.991
CC(C)CNCc1cccc(-c2cccc(CNCCCN3CCN(C)CC3)c2)c1	1.18
COc1cc(F)c2ncc(F)c([C@@H](O)CN3CCC(NCc4cc5c(cn4)OCCO5)CC3)c2c1	0.477
COc1ccc2[nH]c(C)cc(=NN=Cc3ccccc3)c2c1	1.03
O=C(Nc1ccccc1Cc1ccccc1)c1ccccc1C(F)(F)F	0.782
Cc1[nH]c(C)c(-c2ccc(-c3ccccc3Cl)nc2)c(=O)c1Br	0.171
CC1(C)N=C(N)N=C(NOCCCCCCONC2=NC(N)=NC(C)(C)N2)N1	0.0333
Nc1c(Cl)cc(C(O)CNCCCCCOCCCc2ccc(O)c3ncccc23)cc1Cl (stereo not drawn)	0.992
C=C[C@]1(C)C[C@@H](OC(=O)CNC[C@@H](O)CN2C[C@H](c3ccnc4ccc(OC)nc34)OC2=O)[C@@]2(C)[C@@H]3C(=O)CC[C@@]3(CC[C@@H]2C)[C@@H](C)[C@@H]1O	0.948
Cc1n[nH]c2cc(Nc3nccc(Nc4ccc(Oc5ccccc5)cc4)n3)ccc12	0.6
CCCCN(CCCC)CC(O)c1cc(-c2ccc(Cl)cc2)nc2c(Cl)cc(Cl)cc12 (stereo not drawn)	0.0263
C=CCOC(=O)N1CCC(CNCc2cccc(-c3cccc(-c4nc5cc(F)ccc5[nH]4)c3)c2)C1 (stereo not drawn)	0.207
CC(=O)Nc1nc(C(=O)Nc2cccc(-c3ccc(-c4nc5cccc(C)c5[nH]4)s3)c2)cs1	0.222
CC(C)Cn1c(Sc2ccc(C#N)c([N+](=O)[O-])c2)nnc1-c1cccc(Cl)c1	0.301
O=C(C=Cc1ccc(Cl)c(Cl)c1)NCCCCCN1CCCC(CCCNS(=O)(=O)c2ccc(Br)cc2)C1 (stereo not drawn)	0.955
COc1ccc2c(c1CCNCCCCNCCc1c(OC)ccc3c1CCCC3)CCCC2	0.376
CCCCCn1c(Sc2ccc(C#N)c([N+](=O)[O-])c2)nnc1-c1ccc(Cl)cc1	1.08
COc1ccc(-c2ccc3c(-c4ccc(F)cc4)cnc(N)c3c2)cn1	0.388
CCC(C(C)C)n1ccc2c3c(N)nc(N)nc3ccc21 (stereo not drawn)	0.0032
Nc1ncc(-c2cccc(OCc3ccccc3)c2)cc1-c1nnc2ccc(Cl)nn12	1.43
